The results in this text go back to US9617267B2, “Compounds and methods for kinase modulation, and indications therefor” (Plexxikon Inc., priority 2009, dated 2017).

The target in one series is CYP2D6 (Homo sapiens (Human), UniProt P10635). Nature of the series: CYP enzyme inhibition, fluorescent substrate (AMMC). The class given is in vitro ADME. The conditions noted are these: read-out: Cyp IC50 2D6. The gist of the method: (§1)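 IC50 derived from loss of fluorescent metabolite across a 10-point 1:1 dilution series. CYP2D6: 1.5 pmol enzyme, 1.5 μM AMMC, 30 min at 37 °C, 409/530 nm; CYP1A2: 0.5 pmol, 5 μM CEC, 15 min, 409/460 nm. Compounds pre-incubated 10 min in NADPH-regenerating mix.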

Series [1] is described as follows: Relative solubility by turbidity threshold concentration in aqueous buffers (pH 1.5, 4.5, 6.8, 7.4). The class given is physicochemical. The conditions noted are these: for turbidity threshold (L, M, H) 1.4: pH 1.4 [sic] (method: SGF pH 1.5); for turbidity threshold (L, M, H) 4.5: pH 4.5 (SIF); for turbidity threshold (L, M, H) 6.8: pH 6.8 (SIF); for turbidity threshold (L, M, H) 7.4: pH 7.4 (HEPES). The gist of the method:
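Solubility class (high >250 μM, moderate 31.3–250 μM, low <31.3 μM) comes from the concentration where absorbance reaches a 0.01 threshold, averaged across 490/535/650 nm. Samples were compound dilutions from DMSO stock, 1 μL into 99 μL buffer at pH 1.5, 4.5, 6.8 or 7.4.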

A further series addresses CYP1A2 (Homo sapiens (Human), UniProt P05177). Nature of the series: CYP enzyme inhibition, fluorescent substrate (CEC). The method, boiled down:
as §1

For the next series, the target named is CYP2C9 (Homo sapiens (Human), UniProt P11712). The series is described as follows: CYP enzyme inhibition, fluorescent substrate (MFC). The gist of the method:
(§2)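 10-pt 1:1 serial dilution in co-factor mix (DMSO stock 100 mM); 10 min preincubation, 37 °C; reaction at 37 °C. Readout: fluorescent metabolite of probe substrate. IC50 from signal vs [compound].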

A further series has as its target CYP2C19 (Homo sapiens (Human), UniProt P33261). Nature of the series: CYP enzyme inhibition, fluorescent substrate (CEC). The method, boiled down: as §2
Another series addresses CYP3A4(BQ) (Homo sapiens (Human), UniProt P08684). Nature of the series: CYP enzyme inhibition, fluorescent substrate BQ. The gist of the method:
as §2

The target in series [2] is B-Raf (Homo sapiens (Human), UniProt P15056). Nature of the series: B-Raf kinase activity biochemical assay (AlphaScreen, biotin-MEK1 phosphorylation). The conditions noted are these: B-Raf. The method, boiled down: (§3)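 Compounds from a 0.1 mM DMSO stock were tested at 8 serially diluted points. Kinase reactions with 100 μM ATP (final) ran 45 min at room temperature, then were stopped with EDTA buffer containing anti-phospho-MEK1/2 antibody plus streptavidin donor and protein A acceptor beads.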

Series [3] relates to B-Raf. The series is described as above. The conditions noted are these: for Biochemical activity ratio B/V600E: ratio of IC50 B-Raf / B-Raf V600E; for Biochemical activity ratio B/C: ratio of IC50 B-Raf / c-Raf-1. The method, boiled down:
as §3

For the next series, the target named is c-Raf-1 (Homo sapiens, UniProt P04049). The series is described as follows: c-Raf-1 kinase activity biochemical assay (AlphaScreen, biotin-MEK1 phosphorylation). The gist of the method:
as §3

The next series addresses CYP3A4(BFC) (Homo sapiens (Human), UniProt P08684). Nature of the series: CYP enzyme inhibition, fluorescent substrate BFC. The method, boiled down: as §2
A further series concerns the target B-Raf V600E (Homo sapiens (Human), UniProt P15056, V600E). Nature of the series: B-Raf V600E kinase activity biochemical assay (AlphaScreen, biotin-MEK1 phosphorylation). The settings on record: for IC50: B-Raf V600E; for Biochemical activity ratio V600E/C: ratio of IC50 B-Raf V600E / c-Raf-1. The gist of the method: as §3
The mark [4] stands for this setting: read-out: Cyp IC50 2C19, CYP2C19, substrate CEC.
[5] abbreviates: read-out: Cyp IC50 3A4(BFC), CYP3A4, substrate BFC.
Where [6] appears, read: read-out: Cyp IC50 3A4(BQ), CYP3A4, substrate BQ.
Setting [7] is: read-out: Cyp IC50 2C9, CYP2C9, substrate MFC.

Read-outs that look alike come from different tables or passages of the source. Where only a bound is given, the exact number is not on record here.

Chain of CYP3A4(BQ) (P08684 whole entry): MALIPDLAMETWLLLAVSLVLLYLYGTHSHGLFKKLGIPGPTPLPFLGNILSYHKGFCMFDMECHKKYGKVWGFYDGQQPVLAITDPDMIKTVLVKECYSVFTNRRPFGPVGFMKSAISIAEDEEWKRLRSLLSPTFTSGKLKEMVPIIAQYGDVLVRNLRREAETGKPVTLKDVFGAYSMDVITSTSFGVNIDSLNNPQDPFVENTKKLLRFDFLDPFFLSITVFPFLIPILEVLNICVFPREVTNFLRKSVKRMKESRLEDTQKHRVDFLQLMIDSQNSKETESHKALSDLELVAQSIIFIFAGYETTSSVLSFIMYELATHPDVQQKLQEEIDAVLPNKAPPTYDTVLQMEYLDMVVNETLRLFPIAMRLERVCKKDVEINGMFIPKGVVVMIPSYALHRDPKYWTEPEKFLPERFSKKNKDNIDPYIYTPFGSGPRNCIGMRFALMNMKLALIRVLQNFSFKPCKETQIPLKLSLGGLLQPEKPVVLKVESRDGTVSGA
Chain of CYP3A4(BFC) (P08684 whole entry): as above
Chain of CYP1A2 (P05177 whole entry): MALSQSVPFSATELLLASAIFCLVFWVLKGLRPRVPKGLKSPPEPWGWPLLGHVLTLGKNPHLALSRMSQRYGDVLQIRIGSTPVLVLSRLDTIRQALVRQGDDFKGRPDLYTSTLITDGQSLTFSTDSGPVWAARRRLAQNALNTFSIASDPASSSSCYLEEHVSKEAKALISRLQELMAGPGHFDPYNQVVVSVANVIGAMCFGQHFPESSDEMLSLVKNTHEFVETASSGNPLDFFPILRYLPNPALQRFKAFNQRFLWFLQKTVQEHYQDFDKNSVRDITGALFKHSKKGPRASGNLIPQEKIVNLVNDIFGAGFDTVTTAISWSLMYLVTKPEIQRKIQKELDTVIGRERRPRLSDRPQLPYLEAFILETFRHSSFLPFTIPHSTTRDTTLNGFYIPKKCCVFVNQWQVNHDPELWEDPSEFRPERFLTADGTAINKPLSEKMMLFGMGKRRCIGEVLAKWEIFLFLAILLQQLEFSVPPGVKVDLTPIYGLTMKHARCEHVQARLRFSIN
Chain of CYP2C9 (P11712 whole entry): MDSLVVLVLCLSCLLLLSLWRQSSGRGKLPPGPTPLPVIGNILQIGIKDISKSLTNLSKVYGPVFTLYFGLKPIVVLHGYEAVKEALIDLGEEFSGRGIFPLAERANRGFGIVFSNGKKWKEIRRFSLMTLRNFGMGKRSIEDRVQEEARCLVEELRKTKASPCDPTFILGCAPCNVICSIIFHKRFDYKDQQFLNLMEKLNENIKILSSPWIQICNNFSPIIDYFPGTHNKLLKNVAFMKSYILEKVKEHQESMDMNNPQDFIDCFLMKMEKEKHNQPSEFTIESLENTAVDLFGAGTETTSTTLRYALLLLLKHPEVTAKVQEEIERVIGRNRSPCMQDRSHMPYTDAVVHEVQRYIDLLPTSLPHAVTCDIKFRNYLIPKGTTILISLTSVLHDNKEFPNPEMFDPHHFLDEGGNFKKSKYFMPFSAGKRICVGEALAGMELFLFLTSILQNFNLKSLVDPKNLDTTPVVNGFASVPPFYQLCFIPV
Chain of CYP2C19 (P33261 whole entry): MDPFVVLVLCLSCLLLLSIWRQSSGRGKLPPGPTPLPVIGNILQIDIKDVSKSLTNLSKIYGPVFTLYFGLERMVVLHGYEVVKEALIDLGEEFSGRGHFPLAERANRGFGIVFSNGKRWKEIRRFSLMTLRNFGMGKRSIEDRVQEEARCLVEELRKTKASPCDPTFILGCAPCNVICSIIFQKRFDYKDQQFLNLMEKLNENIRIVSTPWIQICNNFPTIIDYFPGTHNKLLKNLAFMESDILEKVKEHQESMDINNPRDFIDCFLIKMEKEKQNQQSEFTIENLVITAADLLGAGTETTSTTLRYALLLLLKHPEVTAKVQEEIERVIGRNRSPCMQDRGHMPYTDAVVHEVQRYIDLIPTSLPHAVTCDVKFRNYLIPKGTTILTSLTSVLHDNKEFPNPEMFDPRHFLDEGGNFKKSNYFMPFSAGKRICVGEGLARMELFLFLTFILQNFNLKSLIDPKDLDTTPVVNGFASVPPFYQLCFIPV
Chain of CYP2D6 (P10635 whole entry): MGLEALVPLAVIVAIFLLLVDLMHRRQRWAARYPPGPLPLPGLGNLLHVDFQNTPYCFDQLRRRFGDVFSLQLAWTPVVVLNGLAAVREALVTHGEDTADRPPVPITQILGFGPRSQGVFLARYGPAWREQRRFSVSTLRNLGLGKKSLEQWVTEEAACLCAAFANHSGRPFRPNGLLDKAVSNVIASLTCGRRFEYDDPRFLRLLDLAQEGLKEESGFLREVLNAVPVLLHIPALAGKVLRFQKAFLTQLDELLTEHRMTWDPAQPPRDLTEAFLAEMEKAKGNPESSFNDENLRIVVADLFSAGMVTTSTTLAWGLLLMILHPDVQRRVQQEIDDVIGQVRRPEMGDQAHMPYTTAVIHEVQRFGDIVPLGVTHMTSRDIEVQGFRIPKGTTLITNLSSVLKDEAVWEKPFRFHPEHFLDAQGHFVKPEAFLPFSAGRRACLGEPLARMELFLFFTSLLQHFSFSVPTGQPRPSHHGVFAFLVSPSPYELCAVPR
Chain of B-Raf V600E (P15056 whole entry V600E): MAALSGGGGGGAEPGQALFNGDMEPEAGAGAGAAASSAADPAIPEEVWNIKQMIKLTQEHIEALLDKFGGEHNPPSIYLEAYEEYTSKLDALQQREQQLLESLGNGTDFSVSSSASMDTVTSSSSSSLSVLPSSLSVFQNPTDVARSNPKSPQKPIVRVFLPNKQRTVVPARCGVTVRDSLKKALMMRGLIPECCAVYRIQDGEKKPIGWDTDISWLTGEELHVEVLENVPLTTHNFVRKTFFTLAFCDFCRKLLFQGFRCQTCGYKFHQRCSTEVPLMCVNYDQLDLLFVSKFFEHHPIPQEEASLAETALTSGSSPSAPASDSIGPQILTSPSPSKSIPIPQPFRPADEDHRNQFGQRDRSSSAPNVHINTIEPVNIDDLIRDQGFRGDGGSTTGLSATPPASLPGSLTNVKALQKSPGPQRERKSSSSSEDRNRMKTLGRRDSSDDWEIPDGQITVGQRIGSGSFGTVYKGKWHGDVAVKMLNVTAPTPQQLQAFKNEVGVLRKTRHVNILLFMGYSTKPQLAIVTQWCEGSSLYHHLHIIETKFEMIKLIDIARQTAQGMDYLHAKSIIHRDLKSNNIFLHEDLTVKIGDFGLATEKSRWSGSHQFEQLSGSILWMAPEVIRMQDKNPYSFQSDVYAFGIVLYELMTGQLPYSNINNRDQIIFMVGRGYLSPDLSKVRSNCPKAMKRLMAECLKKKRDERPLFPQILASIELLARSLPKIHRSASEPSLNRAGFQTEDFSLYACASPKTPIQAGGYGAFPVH
Chain of c-Raf-1 (P04049 whole entry, looked up): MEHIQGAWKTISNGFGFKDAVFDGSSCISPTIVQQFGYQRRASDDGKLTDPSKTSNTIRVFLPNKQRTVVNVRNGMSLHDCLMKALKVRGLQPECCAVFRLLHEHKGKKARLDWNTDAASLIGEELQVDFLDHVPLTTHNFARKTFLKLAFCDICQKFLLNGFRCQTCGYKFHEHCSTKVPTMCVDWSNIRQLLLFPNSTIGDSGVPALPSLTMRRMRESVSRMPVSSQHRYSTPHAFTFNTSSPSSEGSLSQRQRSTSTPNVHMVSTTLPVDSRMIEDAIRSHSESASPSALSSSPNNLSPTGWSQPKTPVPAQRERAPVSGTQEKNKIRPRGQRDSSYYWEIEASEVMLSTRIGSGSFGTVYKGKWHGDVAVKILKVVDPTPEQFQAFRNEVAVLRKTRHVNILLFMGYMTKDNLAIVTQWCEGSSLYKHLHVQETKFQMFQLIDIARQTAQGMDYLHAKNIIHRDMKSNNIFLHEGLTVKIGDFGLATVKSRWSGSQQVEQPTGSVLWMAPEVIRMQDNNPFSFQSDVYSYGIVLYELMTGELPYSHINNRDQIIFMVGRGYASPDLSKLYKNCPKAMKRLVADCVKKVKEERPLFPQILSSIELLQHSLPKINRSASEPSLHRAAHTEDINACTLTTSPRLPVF
Chain of B-Raf (Homo sapiens (Human), UniProt P15056) (P15056 whole entry): as the sequence (P15056 whole entry V600E) above, with E600V counted along it

A word on the IC50: it is the point on the concentration scale where inhibition reaches its midpoint. Take `CCCS(=O)(=O)Nc1ccc(F)c(C(=O)c2c[nH]c3ncnc(OCC)c23)c1F` [P-1002, Propane-1-sulfonic acid [3-(4-ethoxy-7H-pyrrolo[2,3-d]pyrimidine-5-carbonyl)-2,4-difluoro-phenyl]-amide]: the IC50 was more than 10 µM on CYP2D6; more than 10 µM against CYP1A2; more than 10 µM against CYP2C9; more than 10 µM at CYP2C19; more than 10 µM against CYP3A4(BQ); more than 0.1 µM against B-Raf [2]. For the same molecule, the half-inhibitory concentration (IC50) on c-Raf-1 is less than 0.1 µM; against CYP3A4(BFC) it was more than 10 µM; at B-Raf V600E it was less than 0.1 µM. Besides, the “turbidity threshold (L, M, H) 1.4” value in [1] was “H (high solubility if the threshold concentration is >250 μm)”. Besides, in series [1], the “turbidity threshold (L, M, H) 4.5” value is on record as “H (high solubility if the threshold concentration is >250 μm)”. Further, the “turbidity threshold (L, M, H) 6.8” value in series [1] is on record as “H (high solubility if the threshold concentration is >250 μm)”. In [1], the “turbidity threshold (L, M, H) 7.4” value was “H (high solubility if the threshold concentration is >250 μm)”. The “Biochemical activity ratio B/V600E” value in the series with B-Raf [3] is reported as 0.1-10. For the same molecule, the “Biochemical activity ratio B/C” value in the series with B-Raf [3] is listed as more than 10. Also, the “Biochemical activity ratio V600E/C” value on B-Raf V600E is given as 0.1-10.
With `Cc1ncnc2[nH]cc(C(=O)c3c(F)ccc(NS(=O)(=O)CC(C)C)c3F)c12` [P-1003, 2-Methyl-propane-1-sulfonic acid [2,4-difluoro-3-(4-methyl-7H-pyrrolo[2,3-d]pyrimidine-5-carbonyl)-phenyl]-amide], the IC50 on CYP2D6 is more than 10 µM; on CYP1A2 (human, 15 min), more than 10 µM; against CYP2C9, 5 to 10 µM; on CYP2C19 (setting [4]), more than 10 µM; on CYP3A4(BQ), 5 to 10 µM; at B-Raf [2] it was more than 0.1 µM. Moreover, the IC50 at c-Raf-1 is less than 0.1 µM; on CYP3A4(BFC) (setting [5]), more than 10 µM; against B-Raf V600E, less than 0.1 µM. For the same molecule, the “turbidity threshold (L, M, H) 1.4” value in [1] was “H (high solubility if the threshold concentration is >250 μm)”. In [1], the “turbidity threshold (L, M, H) 4.5” value is “M (moderate solubility if the threshold concentration is 31.3 μM to 250 μM)”. Besides, the “turbidity threshold (L, M, H) 6.8” value in [1] is “M (moderate solubility if the threshold concentration is 31.3 μM to 250 μM)”. Besides, in series [1], the “turbidity threshold (L, M, H) 7.4” value was “M (moderate solubility if the threshold concentration is 31.3 μM to 250 μM)”. Moreover, the “Biochemical activity ratio B/V600E” value in the series with B-Raf [3] is on record as more than 10. In the series on B-Raf [3], the “Biochemical activity ratio B/C” value is more than 10. Further, the “Biochemical activity ratio V600E/C” value at B-Raf V600E is on record as 0.1-10.
On to `COc1ncnc2[nH]cc(C(=O)c3c(F)ccc(NS(=O)(=O)CC(C)C)c3F)c12` [P-1004, 2-Methyl-propane-1-sulfonic acid [2,4-difluoro-3-(4-methoxy-7H-pyrrolo[2,3-d]pyrimidine-5-carbonyl)-phenyl]-amide], for which the IC50 was more than 10 µM on CYP2D6; more than 10 µM on CYP1A2 (human, 15 min); 5 to 10 µM at CYP2C9; more than 10 µM at CYP2C19 (setting [4]); more than 10 µM on CYP3A4(BQ) (setting [6]); more than 0.1 µM on B-Raf [2]. In addition, the IC50 on c-Raf-1 is less than 0.1 µM; at CYP3A4(BFC) (setting [5]), more than 10 µM; against B-Raf V600E it was less than 0.1 µM. In [1], the “turbidity threshold (L, M, H) 1.4” value was “H (high solubility if the threshold concentration is >250 μm)”. For the same molecule, the “turbidity threshold (L, M, H) 4.5” value in series [1] is given as “H (high solubility if the threshold concentration is >250 μm)”. The “turbidity threshold (L, M, H) 6.8” value in series [1] is “H (high solubility if the threshold concentration is >250 μm)”. For the same molecule, the “turbidity threshold (L, M, H) 7.4” value in series [1] is “H (high solubility if the threshold concentration is >250 μm)”. In addition, the “Biochemical activity ratio B/V600E” value with B-Raf [3] is on record as more than 10. The “Biochemical activity ratio B/C” value in the series with B-Raf [3] is reported as more than 10. The “Biochemical activity ratio V600E/C” value on B-Raf V600E is 0.1-10.
For the molecule `CCCc1ccc(S(=O)(=O)Nc2ccc(F)c(C(=O)c3c[nH]c4ncnc(OC)c34)c2F)cc1` [P-1005, N-[2,4-Difluoro-3-(4-methoxy-7H-pyrrolo[2,3-d]pyrimidine-5-carbonyl)-phenyl]-4-propyl-benzenesulfonamide], the IC50 on CYP2D6 is more than 10 µM; against CYP1A2 (human, 15 min), more than 10 µM; at CYP2C9 (setting [7]), more than 10 µM; at CYP2C19, 5 to 10 µM; at CYP3A4(BQ) (setting [6]), more than 10 µM; on B-Raf [2], more than 0.1 µM. In addition, the IC50 was less than 0.1 µM at c-Raf-1, 5 to 10 µM against CYP3A4(BFC) and more than 0.1 µM against B-Raf V600E. Besides, in [1], the “turbidity threshold (L, M, H) 1.4” value is recorded as “H (high solubility if the threshold concentration is >250 μm)”. Also, in series [1], the “turbidity threshold (L, M, H) 4.5” value is reported as “L (low solubility if the threshold concentration is <31.3 μM)”. In [1], the “turbidity threshold (L, M, H) 6.8” value is “L (low solubility if the threshold concentration is <31.3 μM)”. In series [1], the “turbidity threshold (L, M, H) 7.4” value is recorded as “L (low solubility if the threshold concentration is <31.3 μM)”. For the same molecule, the “Biochemical activity ratio B/V600E” value in the series on B-Raf [3] was 0.1-10. Moreover, the “Biochemical activity ratio B/C” value with B-Raf [3] is on record as 0.1-10. Further, the “Biochemical activity ratio V600E/C” value at B-Raf V600E is given as more than 10.
In the case of `CCOc1ncnc2[nH]cc(C(=O)c3c(F)ccc(NS(=O)(=O)c4ccc(C(F)(F)F)cc4)c3F)c12` [P-1006, N-[3-(4-Ethoxy-7H-pyrrolo[2,3-d]pyrimidine-5-carbonyl)-2,4-difluoro-phenyl]-4-trifluoromethyl-benzenesulfonamide], the IC50 at CYP2D6 is more than 10 µM; at CYP1A2 (read-out: Cyp IC50 1A2, CYP1A2, substrate CEC), more than 10 µM; against CYP2C9 it was 5 to 10 µM; on CYP2C19 (setting [4]), more than 10 µM; at CYP3A4(BQ) (setting [6]) it was more than 10 µM; on B-Raf [2] it was more than 0.1 µM. Moreover, the IC50 on c-Raf-1 was less than 0.1 µM; at CYP3A4(BFC) (setting [5]) it was less than 5 µM; against B-Raf V600E, more than 0.1 µM. In addition, the “turbidity threshold (L, M, H) 1.4” value in series [1] was “L (low solubility if the threshold concentration is <31.3 μM)”. Besides, the “turbidity threshold (L, M, H) 4.5” value in [1] is reported as “L (low solubility if the threshold concentration is <31.3 μM)”. For the same molecule, the “turbidity threshold (L, M, H) 6.8” value in series [1] was “L (low solubility if the threshold concentration is <31.3 μM)”. In series [1], the “turbidity threshold (L, M, H) 7.4” value was “H (high solubility if the threshold concentration is >250 μm)”. Moreover, in the series with B-Raf [3], the “Biochemical activity ratio B/V600E” value is reported as 0.1-10. In addition, the “Biochemical activity ratio B/C” value in the series on B-Raf [3] is given as 0.1-10. For the same molecule, the “Biochemical activity ratio V600E/C” value at B-Raf V600E was more than 10.
In the case of `CCCc1ccc(S(=O)(=O)Nc2ccc(F)c(C(=O)c3c[nH]c4ncnc(C)c34)c2F)cc1` [P-1007, N-[2,4-Difluoro-3-(4-methyl-7H-pyrrolo[2,3-d]pyrimidine-5-carbonyl)-phenyl]-4-propyl-benzenesulfonamide], the half-maximal inhibitory concentration (IC50) on CYP2D6 was more than 10 µM; at CYP1A2 (human, 15 min), more than 10 µM; on CYP2C9 (setting [7]) it was more than 10 µM; on CYP2C19 (setting [4]) it was more than 10 µM; on CYP3A4(BQ), 5 to 10 µM; at B-Raf [2], less than 0.1 µM. Besides, the IC50 on c-Raf-1 is less than 0.1 µM; against CYP3A4(BFC) it was 5 to 10 µM; at B-Raf V600E it was more than 0.1 µM. In series [1], the “turbidity threshold (L, M, H) 1.4” value is listed as “L (low solubility if the threshold concentration is <31.3 μM)”. Further, the “turbidity threshold (L, M, H) 4.5” value in series [1] is “L (low solubility if the threshold concentration is <31.3 μM)”. The “turbidity threshold (L, M, H) 6.8” value in series [1] is on record as “L (low solubility if the threshold concentration is <31.3 μM)”. For the same molecule, in series [1], the “turbidity threshold (L, M, H) 7.4” value was “L (low solubility if the threshold concentration is <31.3 μM)”. In the series on B-Raf [3], the “Biochemical activity ratio B/V600E” value is listed as 0.1-10. Moreover, the “Biochemical activity ratio B/C” value with B-Raf [3] is reported as 0.1-10. Moreover, the “Biochemical activity ratio V600E/C” value at B-Raf V600E was more than 10.
